Measured values reported in patent US7649012B2, “Compounds, pharmaceutical compositions containing same, and methods of use for same” (FASgen, Inc., priority 2002, dated 2010).
Values after ≈ are worked out from the molar mass of the structure shown. Where two headings read alike, the source gives them in different places.

Experiments:
[1] = system: Staphylococcus aureus (ATCC # 29213); assay: Broth microdilution MIC; format: cell-based; conditions: for MIC: Staphylococcus aureus, ATCC29213
Experimental: (§1) A broth microdilution assay is used to assess the antimicrobial activity of the compounds. […] Microorganisms tested include Staphylococcus aureus (ATCC # 29213), Enterococcus faecalis (ATCC # 29212), Pseudomonas aeruginosa (ATCC # 27853), and Escherichia coli (ATCC # 25922). The assay is performed in two growth media, Mueller Hinton Broth and Trypticase Soy Broth. […] Colonies are suspended in sterile broth so that the turbidity matches the turbidity of a 0.5 McFarland standard. The inoculum is diluted 1:10 in sterile broth (Mueller Hinton or Trypticase soy) and 195 ul is dispensed per well of a 96-well plate. The compounds to be tested, dissolved in DMSO, are added to the wells in 5 ul volume at the following concentrations: 25, 12.5, 6.25, 3.125, 1.56 and 0.78 ug/ml in duplicate. Additional concentrations are tested if required. 5 ul of DMSO added to duplicate wells are the vehicle control. Serial dilutions of positive control compounds, vancomycin (E. faecalis and S. aureus) and tobramycin (E. coli and P. aeruginosa), are included in each run. After 24 hours of incubation at 37° C., plates are read at OD600 on a Molecular Devices SpectraMax Plus Spectrophotometer. Average OD600 values are computed using SOFTmax Pro Software (Molecular Devices) and MIC values are determined by linear regression analysis using Prism version 3.02 (Graph Pad Software, San Diego).

[2] = system: Enterococcus faecalis (ATCC # 29212); assay: Broth microdilution MIC; format: cell-based; conditions: for MIC: Enterococcus faecalis, ATCC29212
Experimental: as §1

[3] = system: Escherichia coli (ATCC # 25922); assay: Broth microdilution MIC; format: cell-based; conditions: for MIC: Escherichia coli, ATCC25922
Experimental: as §1

[4] = system: Pseudomonas aeruginosa (ATCC # 27853); assay: Broth microdilution MIC; format: cell-based; conditions: for PSAE/MH(MIC): Mueller Hinton Broth; for PSAE/Tsoy(MIC): Trypticase Soy Broth
Experimental: as §1

[5] = system: MCF-7 human breast cancer cells; assay: [14C]acetate incorporation into total lipids; format: cell-based; conditions: for IC50: Homo sapiens, MCF7, [14C]acetate incorporation into lipids; for 14C(IC50): [14C]acetate incorporation into lipids
Experimental: This assay measures the incorporation of [^14C]acetate into total lipids and is a measure of fatty acid synthesis pathway activity in vitro. It is utilized to measure inhibition of fatty acid synthesis in vitro.
MCF-7 human breast cancer cells cultured as above, are plated at 5×10^4 cells per well in 24-well plates. […] DMSO is added to triplicate wells for a vehicle control. C75 is run at 5 and 10 μg/ml in triplicate as positive controls. After 4 hours of incubation, 0.25 μCi of [^14C]acetate (10 μl volume) is added to each well.
After 2 hours of additional incubation, medium is aspirated from the wells and 800 μl of chloroform:methanol (2:1) and 700 μl of 4 mM MgCl2 is added to each well. Contents of each well are transferred to 1.5 Eppendorf tubes, and spun at full-speed for 2 minutes in a high-speed Eppendorf Microcentrifuge 5415D. After removal of the aqueous (upper) layer, an additional 700 μl of chloroform:methanol (2:1) and 500 μl of 4 mM MgCl2 are added to each tube and then centrifuged for 1 minutes as above. The aqueous layer is removed with a Pasteur pipette and discarded. An additional 400 μl of chloroform:methanol (2:1) and 200 μl of 4 mM MgCl2 are added to each tube, then centrifuged and aqueous layer is discarded. The lower (organic) phase is transferred into a scintillation vial and dried at 40° C. under N2 gas. Once dried, 3 ml of scintillant (APB #NBC5104) is added and vials are counted for ^14C. The Beckman Scintillation counter calculates the average cpm values for triplicates.
The IC50 for the compounds is defined as the concentration of drug leading to a 50% reduction in [^14C]acetate incorporation into lipids compared to controls. […] The average cpm values are computed by the Beckman scintillation counter (Model LS6500) for each compound concentration. Computation of linear regression, best-fit line, r^2, and 95% confidence intervals are calculated using Prism Version 3.0 (Graph Pad Software).

[6] = Weight loss screen in Balb/C mice; format: in vivo; conditions: for change in vivo at 60 mg/kg: ip, 60 mg/kg intraperitoneally; for Deaths in weight loss screen: 60 mg/kg
Experimental: Balb/C mice (Jackson Labs) are utilized for the initial weight loss screening. Animals are housed in temperature and 12 hour day/night cycle rooms and fed mouse chow and water ad lib. Three mice are utilized for each compound tested with vehicle controls in triplicate per experiment. For the experiments, mice are housed separately for each compound tested three mice to a cage. […] Mice are observed and weighed daily; average weights and standard errors are computed with Excel (Microsoft). The experiment continues until treated animals reach their pretreatment weights. […]

[7] = system: MCF-7 human breast cancer cells; assay: Crystal violet cell growth assay; format: cell-based; conditions: MCF7, MCF-7, 72 hours, read-out: Cr. Violet(IC50)
Experimental: The crystal violet assay measure cell growth but not cytotoxicity. This assay employs crystal violet staining of fixed cells in 96-well plates with subsequent solubilization and measurement of OD490 on a spectrophotometer. The OD490 corresponds to cell growth per unit time measured. Cells are treated with the compounds of interest or vehicle controls and IC50 for each compound is computed.
To measure the cytotoxicity of specific compounds against cancer cells, 5×10^4 MCF-7 human breast cancer cells, obtained from the American Type Culture Collection are plated per well in 24 well plates in DMEM medium with 10% fetal bovine serum, penicillin, and streptomycin. Following overnight culture at 37° C. and 5% CO2, the compounds to be tested, dissolved in DMSO, are added to the wells in 1 μl volume at the following concentrations: 50, 40, 30, 20, and 10 μg/ml in triplicate. Additional concentrations are tested if required. 1 μl of DMSO is added to triplicate wells are the vehicle control. C75 is run at 10, and 5 μg/ml in triplicate as positive controls.
After 72 hours of incubation, cells are stained with 0.5 ml of Crystal Violet stain (0.5% in 25% methanol) in each well. After 10 minutes, wells are rinsed, air dried, and then solubilized with 0.5 ml 10% sodium dodecylsulfate with shaking for 2 hours.

[8] = Mueller Hinton Broth, read-out: SA/MH(MIC)
[9] = Trypticase Soy Broth, read-out: SA/Tsoy(MIC)
[10] = Mueller Hinton Broth, read-out: EF/MH(MIC)
[11] = Mueller Hinton Broth, read-out: Ecoli/MH(MIC)
[12] = Mus musculus, 72 h, day3, read-out: Weight Loss
[13] = Trypticase Soy Broth, read-out: EF/Tsoy(MIC)
[14] = Trypticase Soy Broth, read-out: Ecoli/Tsoy(MIC)
[15] = Mus musculus, 24 h, day1, read-out: Weight Loss
[16] = Mus musculus, 48 h, day2, read-out: Weight Loss
[17] = Mus musculus, 48 h, read-out: Weight Loss
[18] = Mus musculus, 96 h, day4, read-out: Weight Loss

Row | SMILES | MIC [1, 8] [mg/L] | MIC [1, 9] [mg/L] | MIC [2, 10] [mg/L] | PSAE/MH(MIC) [4] | PSAE/Tsoy(MIC) [4] | IC50 [5] [mg/L] | IC50 [7] [mg/L] | MIC [2, 13] [mg/L] | Ecoli/MH(MIC) ([3]; Mueller Hinton Broth) | further results
1 | CC/C=C/C=C/C1(C)SC(=O)C=C1O (stereo not drawn) | 202 (≈ 961 µM) | 85 (≈ 404 µM) | 186 (≈ 884 µM) | Neg | Neg | 16.9 (≈ 80.4 µM) | > 50 | – | – | EF/Tsoy(MIC) ([2]; Trypticase Soy Broth): Neg; MIC [3, 11]: 225 mg/L (≈ 1070 µM); Ecoli/Tsoy(MIC) ([3]; Trypticase Soy Broth): Neg; change in vivo at 60 mg/kg ([6]; Mus musculus, 120 h, day5, read-out: Weight Loss): 3.2%
2 | C=C/C(C)=C/C1(C)SC(=O)C=C1O (stereo not drawn) | 235 (≈ 1200 µM) | 102 (≈ 520 µM) | 220 (≈ 1120 µM) | – | – | – | > 50 | – | – | MIC [3, 11]: 290 mg/L (≈ 1480 µM); change in vivo at 60 mg/kg [6, 12]: 7.8%
3 | CCCCCCC1(C)SC(=O)C=C1O (stereo not drawn) | 48 (≈ 224 µM) | 31 (≈ 145 µM) | 98 (≈ 457 µM) | Neg | Neg | 16.5 ± 3.8 (≈ 77 µM) | > 50 | 43 (≈ 201 µM) | Neg | Ecoli/Tsoy(MIC) ([3]; Trypticase Soy Broth): Neg; Deaths in weight loss screen ([6]; day4, three mice): 60 mg/kg: 3 of 3 dead(day4)
4 | CCCCCCC1(C)SC(=O)C=C1OC (stereo not drawn) | 45 (≈ 197 µM) | 48 (≈ 210 µM) | 43 (≈ 188 µM) | Neg | Neg | 14 ± 2.8 (≈ 61.3 µM) | 26.3 ± 4.3 (≈ 115 µM) | 126 (≈ 552 µM) | Neg | MIC [3, 14]: 264 mg/L (≈ 1160 µM); Deaths in weight loss screen ([6]; day1, three mice): 3 of 3 dead; change in vivo at 30 mg/kg ([6]; Mus musculus, 24 h, 30 mg/kg, day1, read-out: Weight Loss): 8.7%; change in vivo at 10 mg/kg ([6]; Mus musculus, 72 h, 10 mg/kg (multiple doses), day3): 1%
5 | CCCCCCCCC1(C)SC(=O)C=C1OC (stereo not drawn) | 252 (≈ 983 µM) | 67 (≈ 261 µM) | 72 (≈ 281 µM) | Neg | Neg | 11 (≈ 42.9 µM) | 21.4 (≈ 83.5 µM) | – | Neg | EF/Tsoy(MIC) ([2]; Trypticase Soy Broth): Neg; Ecoli/Tsoy(MIC) ([3]; Trypticase Soy Broth): Neg; change in vivo at 60 mg/kg [6, 15]: 6.1%
6 | C=CCC1=C(OC)C(C)(CCCCCCCC)SC1=O (stereo not drawn) | – | 98 (≈ 331 µM) | – | Neg | Neg | 23.1 ± 17.4 (≈ 77.9 µM) | 22.3 (≈ 75.2 µM) | 169 (≈ 570 µM) | Neg | SA/MH(MIC) ([1]; Mueller Hinton Broth): Neg; EF/MH(MIC) ([2]; Mueller Hinton Broth): Neg; Ecoli/Tsoy(MIC) ([3]; Trypticase Soy Broth): Neg; change in vivo at 60 mg/kg [6, 15]: 7.9%
7 | CCCCCCCCC1(C)SC(=O)C=C1OC(=O)OCC (stereo not drawn) | 45 (≈ 143 µM) | 83 (≈ 264 µM) | 86 (≈ 273 µM) | – | – | 14.5 ± 6.9 (≈ 46.1 µM) | 31.4 ± 5.7 (≈ 99.9 µM) | 62 (≈ 197 µM) | – | change in vivo at 30 mg/kg ([6]; Mus musculus, 96 h, 30 mg/kg, day4, read-out: Weight Loss): 1.3%; change in vivo at 60 mg/kg [6, 16]: 6.9%
8 | CCCCCCCCC1(C)SC(=O)C(C(C)O)=C1OC (stereo not drawn) | 53.3 ± 2.1 (≈ 177 µM) | 16.2 ± 3.8 (≈ 53.9 µM) | 77 (≈ 256 µM) | Neg | Neg | 21.7 (≈ 72.2 µM) | 23.2 (≈ 77.2 µM) | 25 (≈ 83.2 µM) | Neg | MIC [3, 14]: 249 mg/L (≈ 829 µM); change in vivo at 30 mg/kg [6, 17]: 0.2%
9 | CCCCCCCCC1(C)SC(=O)C=C1OCC(=O)NNC(=O)c1ccco1 (stereo not drawn) | – | – | – | – | – | 16.4 (≈ 40.1 µM) | 26.3 (≈ 64.4 µM) | – | – | change in vivo at 60 mg/kg [6, 18]: 6.3%
10 | CCCCCCCCC1(C)SC(=O)C=C1OCC(=O)NNC(C)=O (stereo not drawn) | – | – | – | – | – | 11.5 (≈ 32.3 µM) | 28.7 (≈ 80.5 µM) | – | – | change in vivo at 60 mg/kg [6, 18]: 5.9%
11 | CCCCCCCCC1(C)SC(=O)C=C1OCC(=O)NNCc1ccc(Cl)cc1 (stereo not drawn) | – | – | – | – | – | 10.5 ± 2.6 (≈ 23.9 µM) | < 5 | – | – | change in vivo at 60 mg/kg [6, 16]: 1.4%
12 | C=CCN(C)C(=O)COC1=CC(=O)SC1(C)CCCCCCCC (stereo not drawn) | – | – | – | – | – | 25.7 (≈ 72.7 µM) | 9 (≈ 25.5 µM) | – | – | change in vivo at 60 mg/kg [6, 12]: 1.5%
13 | CCCCCCCCC1(C)SC(=O)C=C1OCc1ccccc1 (stereo not drawn) | – | – | – | – | – | – | 9.5 (≈ 28.6 µM) | – | – | 14C(IC50) [5]: Neg(stim); change in vivo at 60 mg/kg [6, 12]: 5.2%
14 | C=CCNC(=O)COC1=CC(=O)S[C@]1(C)CCCCCCCCCC (racemic) | 28 (≈ 76.2 µM) | 31 (≈ 84.3 µM) | – | Neg | Neg | – | 10.4 (≈ 28.3 µM) | – | – | 14C(IC50) [5]: Neg; change in vivo at 15 mg/kg ([6]; Mus musculus, 24 h, read-out: Weight Loss): 0%; change in vivo at 30 mg/kg [6, 17]: 1.8%
